Experimental data reported in patent US9284325B2, “Spectinamides as anti-tuberculosis agents” (UNIVERSITY OF TENNESSEE RESEARCH FOUNDATION, priority 2009, dated 2016).
In brackets after ≈: the same amount, converted by molar mass. Structures can show the parent of a compound that is named as a salt.

Tests used:
E. faecalis ATCC 33186 = test: MIC determination by microbroth dilution; format: cell-based, Enterococcus faecalis; settings: Enterococcus faecalis, ATCC33186
[1] = tested on: Strep. pneumoniae DAW27 or strain R6; test: MIC determination by microbroth dilution; format: cell-based, Streptococcus pneumoniae; settings: Streptococcus pneumoniae; Strep. pneumoniae DAW27 or strain R6 (for 1443-1544); read-out: MIC S. pneumoniae
[2] = tested on: Strep. pyogenes ATCC 700294; test: MIC determination by microbroth dilution; format: cell-based, Streptococcus pyogenes; settings: Streptococcus pyogenes, ATCC700294, read-out: MIC S. pyogenes
[3] = tested on: S. aureus 8325 or strain ATCC 29213; test: MIC determination by microbroth dilution; format: cell-based, Staphylococcus aureus; settings: Staphylococcus aureus, ATCC29213; S. aureus 8325 or strain ATCC 29213 (for 1471-1544)
P. aeruginosa PAO1 = test: MIC determination by microbroth dilution; format: cell-based, Pseudomonas aeruginosa; settings: Pseudomonas aeruginosa
[4] = tested on: Acinetobacter baumannii ATCC 19606; test: MIC determination by microbroth dilution; format: cell-based; settings: ATCC19606
E. coli K12 = test: MIC determination by microbroth dilution; format: cell-based, Escherichia coli; settings: Escherichia coli, K12
[5] = tested on: Klebsiella pneumoniae ATCC 33495; test: MIC determination by microbroth dilution; format: cell-based; settings: ATCC33495
[6] = tested on: Strenotrophomonas maltophilia ATCC 13637; test: MIC determination by microbroth dilution; format: cell-based
[7] = tested on: Proteus vulgaris ATCC 33420; test: MIC determination by microbroth dilution; format: cell-based; settings: ATCC33420
M. tuberculosis H37Rv = test: MIC determination by microbroth dilution, anti-tuberculosis activity; format: cell-based, Mycobacterium tuberculosis; settings: Mycobacterium tuberculosis, H37RV, 168 h; read-out: MIC
B. anthracis Sterne 34F2 = test: microbe, parasite or virus in culture; format: cell-based, Bacillus anthracis; settings: Bacillus anthracis, STERNE34F2, read-out: MIC B. anthracis 34F2
E. coli K12 ΔtolC = test: microbe, parasite or virus in culture; format: cell-based; settings: Escherichia coli, read-out: MIC E. coli K12 ΔtolC
[8] = tested on: Proteus mirabilis ATCC 25933; test: MIC determination by microbroth dilution; format: cell-based; settings: ATCC25933
[9] = tested on: Burkholderia cepacia ATCC 25416; test: MIC determination by microbroth dilution; format: cell-based; settings: ATCC25416, read-out: MIC B. cepcia

| Compound | MIC (E. faecalis ATCC 33186) [µg/mL] | MIC [1] [µg/mL] | MIC [2] [µg/mL] | MIC [3] [µg/mL] | MIC (P. aeruginosa PAO1) [µg/mL] | MIC [4] [µg/mL] | MIC (E. coli K12) [µg/mL] | MIC [5] [µg/mL] | MIC [6] [µg/mL] | MIC [7] [µg/mL] | MIC (M. tuberculosis H37Rv) [µg/mL] | MIC (B. anthracis Sterne 34F2) [µg/mL] | MIC (E. coli K12 ΔtolC) [µg/mL] | MIC [8] [µg/mL] | MIC [9] [µg/mL] |
| --- | --- | --- | --- | --- | --- | --- | --- | --- | --- | --- | --- | --- | --- | --- | --- |
| CN[C@@H]1[C@H](O)[C@H](NC)C2O[C@]3(O)C(OC2[C@H]1O)O[C@H](C)C[C@H]3NC(=O)Cc1ccc(-c2ccccc2)cn1 (stereo partly drawn) [Compound 1519, 3′-Dihydro-3′-deoxy-4(R)-(5-phenylpyridin-2-yl)acetylamino spectinomycin trihydrobromide] | 25 | 3.1 | 12.5 | 100 | > 200 | > 200 | > 200 | > 200 | > 200 | > 200 | 3.12 | > 200 | 12.5 | > 200 | > 200 |
| CN[C@@H]1[C@H](O)[C@H](NC)C2O[C@]3(O)C(OC2[C@H]1O)O[C@H](C)C[C@H]3NC(=O)Cc1csc(Nc2ccccc2)n1 (stereo partly drawn) [Compound 1520, 3′-Dihydro-3′-deoxy-4(R)-(2-(phenylamino)thiazol-4-yl)acetylamino spectinomycin trihydrobromide] | 100 | 3.1 | 3.1 | 100 | > 200 | > 200 | > 200 | > 200 | > 200 | > 200 | 6.25 | > 200 | 25 | > 200 | > 200 |
| CN[C@@H]1[C@H](O)[C@H](NC)C2O[C@]3(O)C(OC2[C@H]1O)O[C@H](C)C[C@H]3NC(=O)Cc1ccc(-c2ccc(Cl)cc2)cn1 (stereo partly drawn) [Compound 1535, 3′-Dihydro-3′-deoxy-4(R)-(5-(4-chlorophenyl)pyridin-2-yl)acetylamino spectinomycin trihydrobromide] | 3.1 | 0.8 | 1.6 | 50 | 100 | > 200 | 200 | > 200 | > 200 | > 200 | 3.12 | > 200 | < 6.25 | > 200 | > 200 |
| CN[C@@H]1[C@H](O)[C@H](NC)C2O[C@]3(O)C(OC2[C@H]1O)O[C@H](C)C[C@H]3NC(=O)c1cccc2cccnc12 (stereo partly drawn) [Compound 1536, 3′-Dihydro-3′-deoxy-4(R)-(quinoline-8-yl)carbonylamino spec-tinomycin trihydrobromide] | > 200 | 200 | > 200 | > 200 | > 200 | > 200 | > 200 | > 200 | > 200 | > 200 | > 200 | > 200 | > 200 | > 200 | > 200 |
| CN[C@@H]1[C@H](O)[C@H](NC)C2O[C@]3(O)C(OC2[C@H]1O)O[C@H](C)C[C@H]3NC(=O)Cc1cn(Cc2ccccc2)nn1 (stereo partly drawn) [Compound 1537, 3′-Dihydro-3′-deoxy-4(R)-2-(1-benzyl-1H-1,2,3-triazol-4-yl)acetyl-amino spectinomycin tetrabromide] | 25 (≈ 46.9 µM) | 3.1 (≈ 5.82 µM) | 3.1 (≈ 5.82 µM) | 100 (≈ 188 µM) | > 200 | > 200 | > 200 | > 200 | > 200 | > 200 | 50 (≈ 93.9 µM) | > 200 | 12.5 (≈ 23.5 µM) | > 200 | > 200 |
| CN[C@@H]1[C@H](O)[C@H](NC)C2O[C@]3(O)C(OC2[C@H]1O)O[C@H](C)C[C@H]3NC(=O)Cc1csc(Nc2ccc(F)cc2)n1 (stereo partly drawn) [Compound 1538, 3′-Dihydro-3′-deoxy-4(R)-(2-((4-fluorophenyl)amino)thiazol-4-yl)acetylamino spectinomycin tribromide] | 25 | 3.1 | 6.25 | 100 | 200 | > 200 | > 200 | > 200 | > 200 | > 200 | 6.25 | > 200 | 25 | > 200 | > 200 |
| CN[C@@H]1[C@H](O)[C@H](NC)C2O[C@]3(O)C(OC2[C@H]1O)O[C@H](C)C[C@H]3NC(=O)Cc1csc(Nc2cccc(F)c2)n1 (stereo partly drawn) [Compound 1539, 3′-Dihydro-3′-deoxy-4(R)-(2-((3-fluorophenyl)amino)thiazol-4-yl)acetylamino spectinomycin tribromide] | 25 | 3.1 | 3.1 | 100 | > 200 | > 200 | > 200 | > 200 | > 200 | > 200 | 6.25 | > 200 | 12.5 | > 200 | > 200 |
| CN[C@@H]1[C@H](O)[C@H](NC)C2O[C@]3(O)C(OC2[C@H]1O)O[C@H](C)C[C@H]3NC(=O)Cc1csc(Nc2ccc(OC(F)(F)F)cc2)n1 (stereo partly drawn) [Compound 1540, 3′-Dihydro-3′-deoxy-4(R)-(2-((4-(trifluoromethoxy)phenyl)amino)-thiazol-4-yl)acetylamino spectinomycin tribromide] | 25 | 6.25 | 6.25 | 100 | 25 | > 200 | > 200 | > 200 | 200 | > 200 | 6.25 | > 200 | 12.5 | > 200 | > 200 |
| CN[C@@H]1[C@H](O)[C@H](NC)C2O[C@]3(O)C(OC2[C@H]1O)O[C@H](C)C[C@H]3NC(=O)Cc1csc(Nc2ccc(C(F)(F)F)cc2)n1 (stereo partly drawn) [Compound 1541, 3′-Dihydro-3′-deoxy-4(R)-(2-((4-(trifluoromethyl)phenyl)amino)-thiazol-4-yl)acetylamino spectinomycin tribromide] | 25 | 3.1 | 6.25 | 100 | 25 | > 200 | > 200 | > 200 | 200 | > 200 | 6.25 | > 200 | 12.5 | > 200 | > 200 |
| CN[C@@H]1[C@H](O)[C@H](NC)C2O[C@]3(O)C(OC2[C@H]1O)O[C@H](C)C[C@H]3NC(=O)Cc1ccc(-c2ccc(F)cc2)cn1 (stereo partly drawn) [Compound 1542, 3′-Dihydro-3′-deoxy-4(R)-(5-(4-fluorophenyl)pyridin-2-yl)acetylamino spectinomycin tribromide] | 25 | 3.1 | 6.25 | 100 | > 200 | > 200 | > 200 | > 200 | > 200 | > 200 | 3.12 | > 200 | 12.5 | > 200 | > 200 |
| CN[C@@H]1[C@H](O)[C@H](NC)C2O[C@]3(O)C(OC2[C@H]1O)O[C@H](C)C[C@H]3NC(=O)Cc1ccc(-c2cccc(OC)c2)cn1 (stereo partly drawn) [Compound 1543, 3′-Dihydro-3′-deoxy-4(R)-(5-(3-methoxyphenyl)pyridin-2-yl)acetyl-amino spectinomycin tribromide] | 12.5 | 3.1 | 6.25 | 100 | > 200 | > 200 | > 200 | > 200 | 200 | > 200 | 6.25 | > 200 | < 6.25 | > 200 | > 200 |
| CN[C@@H]1[C@H](O)[C@H](NC)C2O[C@]3(O)C(OC2[C@H]1O)O[C@H](C)C[C@H]3NC(=O)Cc1cc(Cl)ccn1 (stereo partly drawn) [Compound 1544, 3′-Dihydro-3′-deoxy-4(R)-(4-chloropyridin-2-yl)acetylamino spec-tinomycin tribromide] | 100 | 6.25 | 12.5 | 50 | > 200 | > 200 | > 200 | > 200 | > 200 | > 200 | 0.8 | > 200 | 12.5 | > 200 | > 200 |
